This is an account of results in US20070082061A1, “REDUCTION OF SALTINESS WITH SWEETENERS” (priority 2005, published 2007).

Data set [1] in a line: Stability of sweeteners in FLEET PHOSPHO-SODA (Example 1). The protocol: While it is possible to add the sweetener and/or flavoring a short time before consumption of a phosphate salt bowel cleanser and retain at least a portion of the palatability benefits, one goal of the present bowel cleansing compositions is to provide stable liquids having increased palatability. Thus, numerous sweeteners and flavorings were tested for stability in phosphate salt bowel cleanser.
Sucrose, Saccharin, Sucralose, Aspartame, Ace-K, Thaumatin (Talin), Neohesperidine Dihydrochalcone (NHDC), and Trehalose were tested for stability in FLEET® PHOSPHO-SODA®.

A short description of data set [2]: Sweetener concentration preference in diluted phosphate salt bowel cleanser, about 35 testers (Example 10). In kind it is in vivo, human. Particulars: for preferred sweetener concentration to decrease saltiness: in the phosphate salt bowel cleanser; for Average rating: scale 1 to 4, 4 highly preferred, phosphate salt bowel cleanser in water. The method, then:
To confirm the correlation of FIG. 1 in a bowel cleanser with multiple sweeteners, approximately 35 testers were asked to select the most palatable solution from five possibilities. Each of the five solutions included 60 mL of the phosphate salt bowel cleanser from Example 2 in 355 mL of water. This solution has an equivalent saltiness to the 2% NaCI/water solution of Example 9. The first of the five solutions lacked any sweetener, while an increasing concentration of sweetener was added to the remaining four. Tests were performed using Sucralose, the 5:1 Ace-K/Sucralose blend, Ace-K, or Saccharin as the sweetener.
Tables 8, 9, 10, and 11, below, present the average test data for each sweetener, respectively.
The sweetener concentration for each data point corresponds to those in Tables 8 through 11, above, with higher values on the X-axis corresponding to higher sweetener concentrations.

Data set [3] can be described thus: Taste tests to determine equivalent sweetness of sweeteners in a salty liquid (Example 4). In kind it is in vivo, human. The protocol:
Before a preferred sweetener for use in salty liquids could be determined, the amount of each sweetener required to provide an equivalent sweetness was determined. Multiple taste tests were performed comparing various concentrations of Sucralose, Ace-K, the 5:1 Ace-K/Sucralose blend, Saccharin, and sucrose in a salty liquid to determine an equivalent […].

Data set [4] is described as follows: Sweetener preference in diluted phosphate salt bowel cleanser, forty test subjects (Example 5). It is filed as in vivo, human. Particulars: scale 1 to 4, 60 mL phosphate salt bowel cleanser in 355 mL water. The method, then:
Each solution was prepared by diluting 60 mL of the phosphate salt bowel cleanser from Example 2 in 355 mL of water and using either 0.05% Ace-K, 0.05% Sucralose, 0.08% saccharin, 0.05% of a 5:1 Ace-K/Sucralose blend, or 15% sucrose as the sweetener.

For data set [5] the following is noted: considered to be; cited from earlier work.

Read-outs that look alike come from different tables or passages of the source. Where a SMILES comes first, the peptide text is derived from it.

As to `OC[C@H]1O[C@H](O[C@H]2O[C@H](CO)[C@@H](O)[C@H](O)[C@H]2O)[C@H](O)[C@@H](O)[C@@H]1O` [Trehalose], in data set [1], the “stability in FLEET PHOSPHO-SODA” value is on record as “effectiveness diminished over time”.
Consider `CC1=CC(=O)NS(=O)(=O)O1` [Ace-K, acesulfame potassium], for which, in data set [2], the “preferred sweetener concentration to decrease saltiness” value amounted to 0.05%. For the same molecule, the Average rating amounted to 1.88 in data set [2] (Ace-K 0.025 % (w/w)), 2.63 in data set [2] (Ace-K 0.05 % (w/w)), 2.16 in data set [2] (Ace-K 0.1 % (w/w)) and 2.16 in data set [2] (Ace-K 0.2 % (w/w)). Further, in data set [3], the “sweetener concentration providing an equivalent sweetness” value came to 0.05%. Also, in data set [1], the “stability in FLEET PHOSPHO-SODA” value was “acceptable stability”. Also, the average preference value in data set [4] (0.05% sweetener) is reported as 2.45. The “sweetness relative to sucrose / sugar” value in data set [5] was “about 200 times”.
Take `O=C1NS(=O)(=O)c2ccccc21` [Saccharin]: in data set [2], the “preferred sweetener concentration to decrease saltiness” value is “about 0.0832%”. Moreover, the Average rating is on record as 2.29 in data set [2] (Saccharin 0.0208 % (w/w)), 2.47 in data set [2] (Saccharin 0.0416 % (w/w)), 2.47 in data set [2] (Saccharin 0.0832 % (w/w)) and 1.97 in data set [2] (Saccharin 0.1664 % (w/w)). In addition, the “sweetener concentration providing an equivalent sweetness” value in data set [3] was 0.083%. Also, the “stability in FLEET PHOSPHO-SODA” value in data set [1] is “acceptable stability”. Further, in data set [4] (0.08% sweetener), the average preference value amounted to 2.5. The “sweetness relative to sucrose / sugar” value in data set [5] is listed as “about 200 times”.
Regarding `COc1ccc(CCC(=O)c2c(O)cc(O[C@@H]3O[C@H](CO)[C@@H](O)[C@H](O)[C@H]3O[C@@H]3O[C@@H](C)[C@H](O)[C@@H](O)[C@H]3O)cc2O)cc1O` [Neohesperidine Dihydrochalcone (NHDC), Neohesperidine Dihydrochalcone], the “stability in FLEET PHOSPHO-SODA” value in data set [1] (sweetener in phosphate salt laxative solution) is on record as “effectiveness diminished over time”.
For `COC(=O)[C@H](Cc1ccccc1)NC(=O)[C@@H](N)CC(=O)O` [Aspartame] (HELM PEPTIDE1{D.F.[CO[*:1]]}$$$$V2.0), the “stability in FLEET PHOSPHO-SODA” value in data set [1] is recorded as “effectiveness diminished over time”.
With Thaumatin [Thaumatin (Talin)], in data set [1], the “stability in FLEET PHOSPHO-SODA” value is recorded as “effectiveness diminished over time”.
As to `OC[C@H]1O[C@@](CO)(O[C@H]2O[C@H](CO)[C@@H](O)[C@H](O)[C@H]2O)[C@@H](O)[C@@H]1O` [Sucrose, reference compound], the “sweetener concentration providing an equivalent sweetness” value in data set [3] was 15%. Besides, the “stability in FLEET PHOSPHO-SODA” value in data set [1] is given as “effectiveness diminished over time”. Further, in data set [4] (15% sweetener), the average preference value came to 3.3.
